In patent publication US20070259329A1, “Anergy-inducing cellular composition” (BioVerde. Inc., priority 2006, published 2007):
Marks after values point to notes of the source that are not given here.

How the values were obtained:
CD3ε = molecular target: T1, CD3ε (Mus musculus, UniProt P22646); experiment: Lymphocyte marker analysis by flow cytometry, CD3ε epitope; format: cell-based, murine (C57BI/6 splenocytes); conditions: for percent expression of cell surface molecule CD3ε: epitope-specific antibody, average of triplicate; for average percent suppression in epitope detection, CD3ε: relative to untreated control (0 ppm)
T1 construct: endogenous in cells; host or cells: murine splenocytes (C57Bl/6)
T1 sequence (P22646 22-189): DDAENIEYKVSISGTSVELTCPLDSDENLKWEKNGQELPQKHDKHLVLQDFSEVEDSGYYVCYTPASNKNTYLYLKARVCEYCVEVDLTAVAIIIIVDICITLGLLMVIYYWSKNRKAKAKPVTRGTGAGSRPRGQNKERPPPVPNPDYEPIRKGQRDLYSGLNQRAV
T1 sequence (P11942 23-182 partner): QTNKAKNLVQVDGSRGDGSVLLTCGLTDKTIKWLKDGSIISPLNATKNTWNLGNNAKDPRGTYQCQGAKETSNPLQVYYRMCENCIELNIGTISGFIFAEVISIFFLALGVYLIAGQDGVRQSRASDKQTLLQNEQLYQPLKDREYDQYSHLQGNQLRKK
T1 sequence (P04235 22-173 partner): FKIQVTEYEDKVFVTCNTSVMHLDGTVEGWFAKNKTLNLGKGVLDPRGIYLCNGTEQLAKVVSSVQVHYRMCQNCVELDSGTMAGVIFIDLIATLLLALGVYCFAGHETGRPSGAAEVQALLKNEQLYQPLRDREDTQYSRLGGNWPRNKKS
T1 sequence (P24161 22-164 partner): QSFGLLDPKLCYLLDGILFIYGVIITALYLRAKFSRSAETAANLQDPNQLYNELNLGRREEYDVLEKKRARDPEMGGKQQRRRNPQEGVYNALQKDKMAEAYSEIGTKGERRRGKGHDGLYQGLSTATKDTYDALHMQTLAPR
Protocol: (§1) To evaluate the action of EGCG in rendering cells to become anergy-inducing, murine splenocytes were used as a model system. Splenocytes were collected from BALB/c (H2 K^b) and C57BI/6 (H2 K^d) female mice of 8 to 13 weeks of age in HBSS (BioWhittaker) with 1% FCS. Cells were washed with HBSS (1% FCS) and treated with the media solution which contains RPMI 1640 (Sigma-Aldrich), 10 mM HEPES (Dojindo), and various concentrations of EGCG (98% purity, Roche) described in the examples.
(§2) Flow cytometric analyses of surface epitopes for the control and EGCG-treated splenocytes were performed using a series of fluorescence-labeled monoclonal anti-mouse CD and MHC and corresponding isotype control antibodies (eBioscience: CD2, CD36, CD4, CD11a, CD25, CD 28, CD 49d and CD80; Pharmingen: TCRαβ and MHC II). Murine splenocytes (C57BI/6) were treated with red blood cell lysis buffer (eBioscience) for 5 min prior to EGCG treatments. Immediately following EGCG-treatments, the splenocytes were washed with RPMI 1640 (10% FCS) and a staining buffer (eBioscience) at 4 degree C. Each splenocyte sample was reconstituted as a 50 μl aliquot in the same staining buffer and subject to antibody labeling. After washing twice the samples with the staining buffer, a minimum of 10,000 events per sample was collected on a Becton Dickinson FACScan flow cytometer.

TCRαβ = experiment: Lymphocyte marker analysis by flow cytometry, TCRαβ epitope; format: cell-based, murine (C57BI/6 splenocytes); conditions: for percent expression of cell surface molecule TCRαβ: epitope-specific antibody, average of triplicate; for average percent suppression in epitope detection, TCRαβ: relative to untreated control (0 ppm)
Protocol: as §1, §2

CD4 = molecular target: T2, CD4 (Mus musculus, UniProt P06332); experiment: Lymphocyte marker analysis by flow cytometry, CD4 epitope; format: cell-based, murine (C57BI/6 splenocytes); conditions: for percent expression of cell surface molecule CD4: epitope-specific antibody, average of triplicate; for average percent suppression in epitope detection, CD4: relative to untreated control (0 ppm)
T2 construct: endogenous in cells; host or cells: murine splenocytes (C57Bl/6)
T2 sequence (P06332 27-457): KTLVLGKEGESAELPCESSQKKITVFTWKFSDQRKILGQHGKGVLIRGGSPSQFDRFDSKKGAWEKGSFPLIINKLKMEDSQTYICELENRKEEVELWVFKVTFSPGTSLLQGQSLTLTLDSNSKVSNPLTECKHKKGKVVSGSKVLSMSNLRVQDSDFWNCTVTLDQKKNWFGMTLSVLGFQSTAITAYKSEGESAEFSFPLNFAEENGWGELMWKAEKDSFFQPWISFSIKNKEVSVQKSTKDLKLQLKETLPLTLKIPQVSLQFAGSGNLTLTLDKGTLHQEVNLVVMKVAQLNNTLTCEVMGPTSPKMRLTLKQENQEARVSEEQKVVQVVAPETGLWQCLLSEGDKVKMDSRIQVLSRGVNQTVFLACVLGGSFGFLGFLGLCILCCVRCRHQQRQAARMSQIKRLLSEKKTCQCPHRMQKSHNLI
Protocol: as §1, §2

CD28 = molecular target: T3, CD28 (Mus musculus, UniProt P31041); experiment: Lymphocyte marker analysis by flow cytometry, CD28 epitope; format: cell-based, murine (C57BI/6 splenocytes); conditions: for percent expression of cell surface molecule CD28: epitope-specific antibody, average of triplicate; for average percent suppression in epitope detection, CD28: relative to untreated control (0 ppm)
T3 construct: endogenous in cells; host or cells: murine splenocytes (C57Bl/6)
T3 sequence (P31041 20-218): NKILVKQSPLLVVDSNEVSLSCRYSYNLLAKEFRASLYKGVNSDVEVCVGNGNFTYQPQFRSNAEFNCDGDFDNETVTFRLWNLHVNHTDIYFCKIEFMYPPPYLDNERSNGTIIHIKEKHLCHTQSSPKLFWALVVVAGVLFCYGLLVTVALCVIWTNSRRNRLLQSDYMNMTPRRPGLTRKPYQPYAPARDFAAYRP
Protocol: as §1, §2

[1] = test system: Murine splenocytes (C57BI/6); experiment: Survival of murine splenocytes in the media solution containing EGCG (trypan-blue exclusion); format: cell-based; conditions: media with 0, 200, 1000 ppm EGCG, FIGS. 1 and 2
Protocol: Murine splenocytes (C57BI/6) were suspended in the media solution containing 0, 200, and 1000 ppm EGCG with the cell concentration of 10^6/ml, and 5 ml of this cell suspension was placed in six-well incubation plates and incubated at 4 or 37 degree C. for either 1 hr or 24 hours. Surviving cells were counted by trypan-blue exclusion method and direct observation under a high magnification (800×) by a compound light microscope (Nikon Eclipse TE300). […] (FIGS. 1 and 2). Presented data are the average of three replicates for each treatment.

[2] = test system: BALB/c (stimulator cells) and C57BI/6 (responder cells) splenocytes; experiment: One-way mixed lymphocyte reaction (MLR); format: cell-based, murine; conditions: stimulator or responder cells treated with 100, 200 ppm EGCG, 4-8 degree C., 1 hour, 72 hours culture, FIG. 3
[3] = test system: BALB/c (stimulator cells) and C57BI/6 (responder cells) splenocytes; experiment: Two-way mixed lymphocyte reaction (MLR); format: cell-based, murine; conditions: stimulator or responder cells treated with EGCG, 72 hours culture, FIG. 4
Source text: (§3) In a two-way MLR (FIG. 4), both stimulator and responder populations were left capable of proliferating. […] (penicillin 100 U/ml and streptomycin 100 ppm, BioWhittaker) to a final concentration of 5.0×10^6 cells/ml. […] Cell proliferation was estimated by counting with trypan-blue exclusion a small sample of the cells from each MLR well.

C57BI/6 splenocytes = experiment: Viability of EGCG-treated splenocytes; format: cell-based, murine
Source text: as §3, with “well. […] Thus, the attenuation of proliferation as indicated in the MLR experiments (Example II) was not largely due to an EGCG's direct toxicity to the splenocytes. […] The experiments were performed as in Example II.” for “well.”

[4] = EGCG treatment, summary of TABLE 1

For (−)-epigallocatechin-3-o-gallate [EGCG], the “dose dependence of reduction in epitope detection, CD3ε” value (CD3ε; 100 vs 200 ppm) was “dose-dependent reduction”, the “percent expression of cell surface molecule CD3ε” value (CD3ε; EGCg 100 ppm) was 20.2% and the “average percent suppression in epitope detection, CD3ε” value (CD3ε; EGCg 100 ppm) was “(37.5)* percent”. For the same substance, the “percent expression of cell surface molecule CD3ε” value (CD3ε; EGCg 200 ppm) was 5.6%, the “average percent suppression in epitope detection, CD3ε” value (CD3ε; EGCg 200 ppm) was “(82.7)** percent” and the “blocking of CD3ε by EGCG” value (CD3ε; summary of TABLE 1) was “strongly blocked”. The “binding of TCRαβ with its monoclonal antibody” value (TCRαβ; [4]) was “hardly to moderately decreased”, the “percent expression of cell surface molecule TCRαβ” value (TCRαβ; EGCg 100 ppm) was 29.9% and the “average percent suppression in epitope detection, TCRαβ” value (TCRαβ; EGCg 100 ppm) was “(3.5)^n.s. percent”. The “percent expression of cell surface molecule TCRαβ” value (TCRαβ; EGCg 200 ppm) was 29.7%, the “average percent suppression in epitope detection, TCRαβ” value (TCRαβ; EGCg 200 ppm) was “(4.2)^n.s. percent” and the “percent expression of cell surface molecule CD4” value (CD4; EGCg 100 ppm) was 21.1%. For the same substance, the “average percent suppression in epitope detection, CD4” value (CD4; EGCg 100 ppm) was “(12.1)* percent”, the “percent expression of cell surface molecule CD4” value (CD4; EGCg 200 ppm) was 20.8% and the “average percent suppression in epitope detection, CD4” value (CD4; EGCg 200 ppm) was “(13.3)* percent”. The “binding of the CD28-specific monoclonal antibody, of the control” value (CD28; [4]) was “about 50%”, the “percent expression of cell surface molecule CD28” value (CD28; EGCg 100 ppm) was 8.7% and the “average percent suppression in epitope detection, CD28” value (CD28; EGCg 100 ppm) was “(50.6)** percent”. For the same substance, the “percent expression of cell surface molecule CD28” value (CD28; EGCg 200 ppm) was 9.4%, the “average percent suppression in epitope detection, CD28” value (CD28; EGCg 200 ppm) was “(46.6)** percent” and the “% survival at 4 degree C. versus 37 degree C.” value [1] was “greater % survival”. The “survival of the splenocytes” value ([1]; incubated for 24 hours) was “significantly low”, the proliferation of splenocytes [2] was “significantly decreased” and the proliferation of splenocytes [3] was “significantly decreased”. For the same substance, the “viability of EGCG-treated splenocytes” value (C57BI/6 splenocytes; stimulated (C57BI/6 co-cultured with BALB/c), 24, 48, 72 hours, FIG. 6) was “time-dependent decrease” and the “viability of EGCG-treated splenocytes” value (C57BI/6 splenocytes; unstimulated (C57BI/6 only), 24, 48, 72 hours culture without EGCG, FIG. 5) was “did not significantly decreased”.
